In assay [1] the target is Acetylcholinesterase (Electrophorus electricus) (UniProt O42275). The assay can be described thus: Inhibition of electric eel AChE at 20 uM using acetylthiocholine iodide as substrate preincubated with enzyme for 20 mins followed by substrate addition by Ellman's method relative to control. In general terms: In Ellman's method for cholinesterases, released thiocholine reacts with DTNB.

For assay [2], the target named is Cholinesterase (Equus caballus) (UniProt P81908). The assay can be described thus: Inhibition of equine serum BuChE at 20 uM using butyrylthiocholine iodide as substrate preincubated with enzyme for 20 mins followed by substrate addition by Ellman's method relative to control.
Cholinesterase (Equus caballus), sequence (P81908 whole entry): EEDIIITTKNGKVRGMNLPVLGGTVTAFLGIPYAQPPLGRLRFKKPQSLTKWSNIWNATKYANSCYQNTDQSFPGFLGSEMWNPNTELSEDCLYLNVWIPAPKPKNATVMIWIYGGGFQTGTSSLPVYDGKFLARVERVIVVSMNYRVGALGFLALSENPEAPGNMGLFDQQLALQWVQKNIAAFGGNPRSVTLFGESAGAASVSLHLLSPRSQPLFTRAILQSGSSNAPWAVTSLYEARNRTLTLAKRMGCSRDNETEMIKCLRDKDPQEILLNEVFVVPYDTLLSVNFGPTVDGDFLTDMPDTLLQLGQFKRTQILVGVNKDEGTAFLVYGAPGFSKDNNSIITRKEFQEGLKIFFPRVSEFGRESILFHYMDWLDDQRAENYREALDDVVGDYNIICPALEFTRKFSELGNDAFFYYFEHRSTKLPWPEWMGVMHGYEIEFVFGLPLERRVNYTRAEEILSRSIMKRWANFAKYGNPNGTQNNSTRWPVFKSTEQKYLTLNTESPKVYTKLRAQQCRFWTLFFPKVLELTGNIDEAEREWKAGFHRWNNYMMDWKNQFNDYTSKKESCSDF
Another assay concerns the target Cholinesterase (Equus caballus, UniProt P81908). The assay can be described thus: Inhibition of equine serum BuChE using butyrylthiocholine iodide as substrate preincubated with enzyme for 20 mins followed by substrate addition by Ellman's method.

This is an account of results in ChEMBL document CHEMBL4406826, “Discovery of δ-sultone-fused pyrazoles for treating Alzheimer's disease: Design, synthesis, biological evaluation and SAR studies” (Eur J Med Chem, 2019).

Activity calls are given as the source filed them.

Acetylcholinesterase (Electrophorus electricus), sequence (O42275 24-633 limits assumed): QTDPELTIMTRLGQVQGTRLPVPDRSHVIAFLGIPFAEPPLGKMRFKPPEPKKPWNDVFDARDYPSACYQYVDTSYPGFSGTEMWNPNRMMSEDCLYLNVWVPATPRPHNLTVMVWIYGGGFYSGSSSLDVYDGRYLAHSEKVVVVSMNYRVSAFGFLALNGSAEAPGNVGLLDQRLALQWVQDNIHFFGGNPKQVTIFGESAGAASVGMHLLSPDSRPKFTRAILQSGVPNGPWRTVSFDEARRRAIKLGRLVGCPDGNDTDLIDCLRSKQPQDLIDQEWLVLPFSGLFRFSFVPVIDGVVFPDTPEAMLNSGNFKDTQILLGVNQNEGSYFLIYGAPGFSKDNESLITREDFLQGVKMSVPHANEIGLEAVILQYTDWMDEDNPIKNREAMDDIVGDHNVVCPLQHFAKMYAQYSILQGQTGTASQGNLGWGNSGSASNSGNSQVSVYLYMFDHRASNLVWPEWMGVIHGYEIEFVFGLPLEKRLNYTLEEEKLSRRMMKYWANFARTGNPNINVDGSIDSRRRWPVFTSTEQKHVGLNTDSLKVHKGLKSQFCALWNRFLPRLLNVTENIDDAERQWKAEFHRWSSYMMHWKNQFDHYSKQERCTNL
Cholinesterase, sequence (P81908 whole entry): as the sequence (P81908 whole entry) above

Usually inhibition stands for how much of the control response was suppressed. On to `Cc1nn(-c2cccc(F)c2)c2c1C(c1ccc(F)cc1)CS(=O)(=O)O2` (stereo not drawn), for which the inhibition entry in assay [1] and in assay [2] was “inactive” in each case.
With `Cc1nn(-c2ccccc2)c2c1C(c1cccc3c1sc1ccccc13)CS(=O)(=O)O2` (stereo not drawn), the inhibition result in assay [1] and in assay [2] was “inactive” throughout.
For `Cc1ccc(-n2nc(C)c3c2OS(=O)(=O)CC3c2ccccc2)cc1` (stereo not drawn), the inhibition entry in assay [1] and in assay [2] was “inactive” throughout.
For `CC1(C)CC(=O)C2=C(C1)OS(=O)(=O)CC2c1ccc([N+](=O)[O-])cc1` (stereo not drawn), the inhibition entry in assay [1] and in assay [2] was “inactive” in each case.
In the case of `Cc1nn(-c2ccccc2)c2c1C(c1ccc3ccccc3c1)CS(=O)(=O)O2` (stereo not drawn), the inhibition entry in assay [1] and in assay [2] was “inactive” each time.
Consider `Cc1nn(-c2ccccc2)c2c1C(c1ccc(C#N)cc1)CS(=O)(=O)O2` (stereo not drawn), for which the inhibition result in assay [1] is “inactive”. The compound further gave an inhibition in assay [2] of 15%.
As for `Cc1cc(C2CS(=O)(=O)Oc3c2c(C)nn3-c2cccc(Cl)c2)ccc1Br` (stereo not drawn), the inhibition result in assay [1] and in assay [2] was “inactive” in each case.
Regarding `Cc1nn(-c2ccccc2)c2c1C(c1cccs1)CS(=O)(=O)O2` (stereo not drawn), in assay [1], the inhibition result is “inactive”. Besides, in assay [2], the inhibition turned out to be 42%.
The matching figures for `Cc1ccc(-n2nc(C)c3c2OS(=O)(=O)CC3c2ccccc2)cc1C` (stereo not drawn): “inactive” and “inactive”.
The matching figures for `Cc1nn(-c2ccccc2)c2c1CCS(=O)(=O)O2`: “inactive” and “inactive”.
Consider `COc1cccc(C2CS(=O)(=O)Oc3c2c(C)nn3-c2cccc(Cl)c2)c1` (stereo not drawn), for which the inhibition entry in assay [1] and in assay [2] was “inactive” throughout.
`Cc1nn(-c2ccccc2)c2c1C(/C=C/c1ccc(C(F)(F)F)cc1)CS(=O)(=O)O2` (stereo not drawn) returned an inhibition in assay [1] of 19%. The inhibition result in assay [2] is “inactive”.
Consider `Cc1nn(-c2ccc(Cl)cc2)c2c1C(c1cccc(F)c1)CS(=O)(=O)O2` (stereo not drawn), for which the inhibition entry in assay [1] and in assay [2] was “inactive” throughout.
Take `Cc1nn(-c2ccccc2)c2c1C(c1cccc(C3CS(=O)(=O)Oc4c3c(C)nn4-c3ccccc3)c1)CS(=O)(=O)O2` (stereo not drawn): the inhibition result in assay [1] and in assay [2] was “inactive” in each case.
As a reminder, the IC50 is the concentration at which inhibition is half-maximal. Higher therefore signals lower potency. As for `COc1ccc(C2CS(=O)(=O)Oc3c2c(C)nn3-c2ccccc2)cc1` (stereo not drawn), the inhibition result in assay [1] was “inactive”. Further, the IC50 against Cholinesterase was found to be 9.35 µM.
Turning to `O=C1CCCC2=C1C(c1ccc([N+](=O)[O-])cc1)CS(=O)(=O)O2` (stereo not drawn), the inhibition entry in assay [1] is “inactive”. In assay [2], this compound registered an inhibition of 25%.
With `COc1ccc(-c2nn(-c3ccc(Cl)cc3)c3c2C(c2cccc(OC)c2)CS(=O)(=O)O3)cc1` (stereo not drawn), in assay [1], the inhibition entry is “inactive”. This compound also showed an inhibition in assay [2] of 42%.
As to `Cc1nn(-c2cccc(Cl)c2)c2c1C(c1ccc(F)cc1)CS(=O)(=O)O2` (stereo not drawn), the inhibition entry in assay [1] and in assay [2] was “inactive” throughout.
Take `Cc1cc(C)cc(C2CS(=O)(=O)Oc3c2c(C)nn3-c2ccccc2)c1` (stereo not drawn): the inhibition result in assay [1] and in assay [2] was “inactive” each time.
With `Cc1nn(-c2ccccc2)c2c1C(c1cnn(-c3ccccc3)c1)CS(=O)(=O)O2` (stereo not drawn), the inhibition result in assay [1] is “inactive”. Moreover, in assay [2], the inhibition came out at 14%.
With `N#Cc1ccc(C2CS(=O)(=O)Oc3c2c(C2CC2)nn3-c2cccc(Cl)c2)cc1` (stereo not drawn), the inhibition result in assay [1] and in assay [2] was “inactive” in each case.
For the compound `COc1ccc(-n2nc(C)c3c2OS(=O)(=O)CC3c2ccc(Br)c(C)c2)cc1` (stereo not drawn), the inhibition result in assay [1] and in assay [2] was “inactive” in each case.
`COc1ccc(-c2nn(-c3ccc(Cl)cc3)c3c2C(c2ccc(Br)c(C)c2)CS(=O)(=O)O3)cc1` (stereo not drawn): in assay [1], the inhibition result is “inactive”. The compound also gave an IC50 at Cholinesterase of 13.3 µM.
Consider `Cc1cccc(-n2nc(C)c3c2OS(=O)(=O)CC3c2ccccc2)c1` (stereo not drawn), for which the inhibition result in assay [1] and in assay [2] was “inactive” each time.
Compound `Cc1nn(-c2ccccc2)c2c1C(/C=C/c1ccc(C(C)(C)C)cc1)CS(=O)(=O)O2` (stereo not drawn) returned an inhibition in assay [1] of 11%. Also, the inhibition result in assay [2] was “inactive”.
For the compound `Cc1nn(-c2ccccc2)c2c1C(c1cccc(F)c1)CS(=O)(=O)O2` (stereo not drawn), the inhibition result in assay [1] was “inactive”. In addition, on Cholinesterase, the IC50 is 9.82 µM.
Consider `Cc1nn(-c2cccc(F)c2)c2c1C(c1cccc(F)c1)CS(=O)(=O)O2` (stereo not drawn), for which the inhibition entry in assay [1] and in assay [2] was “inactive” throughout.
As to `Cc1nn(-c2ccc(Br)cc2)c2c1C(c1ccccc1)CS(=O)(=O)O2` (stereo not drawn), the inhibition result in assay [1] and in assay [2] was “inactive” in each case.
As to `Cc1nn(-c2ccccc2)c2c1C(c1cccc([N+](=O)[O-])c1)CS(=O)(=O)O2` (stereo not drawn), the inhibition result in assay [1] was “inactive”. Besides, in assay [2], the inhibition came to 23%.
As to `O=C1CCC2=C1C(c1ccc([N+](=O)[O-])cc1)CS(=O)(=O)O2` (stereo not drawn), the inhibition entry in assay [1] and in assay [2] was “inactive” each time.
The compound `Cc1cccc(/C=C/C2CS(=O)(=O)Oc3c2c(C)nn3-c2ccccc2)c1` (stereo not drawn) displayed an inhibition in assay [1] of 13%. Besides, 10.1 µM corresponded to half-maximal inhibition against Cholinesterase (IC50).
The matching figures for `COc1cccc(C2CS(=O)(=O)Oc3c2c(C)nn3-c2ccccc2)c1` (stereo not drawn): “inactive” and 11 µM.
As for `CC(=O)C1=C(C)OS(=O)(=O)CC1c1ccc([N+](=O)[O-])cc1` (stereo not drawn), the inhibition entry in assay [1] and in assay [2] was “inactive” throughout.
Consider `Cc1nn(-c2ccccc2)c2c1C(c1cc3ccccc3s1)CS(=O)(=O)O2` (stereo not drawn), for which the results for the inhibition in assay [1] and in assay [2] were 14% and 33%, respectively.
For the compound `Cc1cc(C2CS(=O)(=O)Oc3c2c(C2CC2)nn3-c2cccc(F)c2)ccc1Br` (stereo not drawn), the inhibition result in assay [1] is “inactive”. In addition, on Cholinesterase, the half-inhibitory concentration (IC50) was determined as 11.5 µM.
For the compound `Cc1nn(-c2ccc(Cl)cc2)c2c1C(c1ccc(F)cc1)CS(=O)(=O)O2` (stereo not drawn), the inhibition result in assay [1] and in assay [2] was “inactive” each time.
`COc1ccc(-c2nn(-c3ccc(Cl)cc3)c3c2C(c2ccc(C#N)cc2)CS(=O)(=O)O3)cc1` (stereo not drawn): the inhibition entry in assay [1] is “inactive”. Moreover, on Cholinesterase, inhibition was half-maximal at 21 µM (IC50).
Consider `Cc1nn(-c2ccccc2)c2c1C(c1cc3ccccc3o1)CS(=O)(=O)O2` (stereo not drawn), for which the inhibition entry in assay [1] was “inactive”. Besides, half-maximal inhibition against Cholinesterase (IC50) was put at 2.6 µM.
Regarding `Cc1nn(-c2ccccc2)c2c1C(c1ccc(-c3ccccc3)cc1)CS(=O)(=O)O2` (stereo not drawn), the inhibition in assay [1] is 12%. The inhibition result in assay [2] was “inactive”.
Take `CC(C)C(=O)C1=C(C(C)C)OS(=O)(=O)CC1c1ccc([N+](=O)[O-])cc1` (stereo not drawn): the inhibition result in assay [1] and in assay [2] was “inactive” in each case.
As to `CC(=O)c1cccc(C2CS(=O)(=O)Oc3c2c(C)nn3-c2ccccc2)c1` (stereo not drawn), in assay [1], the inhibition result is “inactive”. In assay [2], this compound gave an inhibition of 24%.
On to `N#Cc1ccc(C2CS(=O)(=O)Oc3c2c(C2CC2)nn3-c2ccccc2Cl)cc1` (stereo not drawn), for which the inhibition result in assay [1] is “inactive”. In assay [2], the inhibition was 7%.
For `Cc1nn(-c2ccccc2)c2c1C(c1ccsc1)CS(=O)(=O)O2` (stereo not drawn), in assay [1], the inhibition entry was “inactive”. In addition, it took 10.1 µM to reach half-maximal inhibition against Cholinesterase (IC50).
`Cc1nn(-c2ccccc2)c2c1C(c1ccc(F)cc1)CS(=O)(=O)O2` (stereo not drawn): in assay [1], the inhibition entry was “inactive”. The inhibition in assay [2] came out at 37%.
Consider `COc1ccc(-n2nc(C)c3c2OS(=O)(=O)CC3c2ccc(F)cc2)cc1` (stereo not drawn), for which the inhibition result in assay [1] is “inactive”. This compound also had an inhibition in assay [2] of 15%.
As for `COc1ccc(-c2nn(-c3ccc(Cl)cc3)c3c2C(c2ccc(F)cc2)CS(=O)(=O)O3)cc1` (stereo not drawn), the inhibition entry in assay [1] was “inactive”. For the same compound, the inhibition in assay [2] came out at 7%.
Take `COc1ccc(-c2nn(-c3ccccc3Cl)c3c2C(c2ccc(Br)c(C)c2)CS(=O)(=O)O3)cc1` (stereo not drawn): the inhibition result in assay [1] was “inactive”. In assay [2], this compound displayed an inhibition of 35%.
Turning to `CCOC(=O)c1ccc(C2CS(=O)(=O)Oc3c2c(C)nn3-c2ccccc2)cc1` (stereo not drawn), the inhibition result in assay [1] and in assay [2] was “inactive” throughout.
Turning to `Cc1nn(-c2cccc(Cl)c2)c2c1C(c1cccc(F)c1)CS(=O)(=O)O2` (stereo not drawn), the inhibition result in assay [1] and in assay [2] was “inactive” throughout.
`COc1ccc(-c2nn(-c3ccccc3Cl)c3c2C(c2ccc(F)cc2)CS(=O)(=O)O3)cc1` (stereo not drawn): the inhibition result in assay [1] and in assay [2] was “inactive” throughout.
As to `Cc1nn(-c2ccc(F)cc2)c2c1C(c1ccccc1)CS(=O)(=O)O2` (stereo not drawn), the inhibition result in assay [1] and in assay [2] was “inactive” in each case.
Turning to `Cc1nn(-c2ccccc2)c2c1C(/C=C/c1ccc(Br)cc1)CS(=O)(=O)O2` (stereo not drawn), the inhibition entry in assay [1] and in assay [2] was “inactive” in each case.
Consider `COc1ccccc1C1CS(=O)(=O)Oc2c1c(C)nn2-c1ccccc1` (stereo not drawn), for which the inhibition result in assay [1] was “inactive”. The inhibition in assay [2] came to 31%.
As for `O=S1(=O)CC(c2cccc(C(F)(F)F)c2)c2c(C3CC3)nn(-c3ccccc3Cl)c2O1` (stereo not drawn), the inhibition entry in assay [1] and in assay [2] was “inactive” each time.
For `Cc1nn(-c2ccccc2)c2c1C(c1ccc([N+](=O)[O-])cc1)CS(=O)(=O)O2` (stereo not drawn), the inhibition entry in assay [1] and in assay [2] was “inactive” each time.
Regarding `COc1ccc(-c2nn(-c3ccccc3F)c3c2C(c2ccc(F)cc2)CS(=O)(=O)O3)cc1` (stereo not drawn), the inhibition result in assay [1] and in assay [2] was “inactive” each time.
On to `Cc1cc(C2CS(=O)(=O)Oc3c2c(C2CC2)nn3-c2cccc(Cl)c2)ccc1Br` (stereo not drawn), for which, in assay [1], the inhibition result is “inactive”. The compound also yielded an inhibition in assay [2] of 34%.
Take `Cc1cc(C2CS(=O)(=O)Oc3c2c(C)nn3-c2ccc(Cl)cc2)ccc1Br` (stereo not drawn): the inhibition result in assay [1] was “inactive”. For the same compound, in assay [2], the inhibition turned out to be 34%.
For the compound `Cc1ccc(C2CS(=O)(=O)Oc3c2c(C)nn3-c2ccccc2)cc1` (stereo not drawn), the inhibition result in assay [1] and in assay [2] was “inactive” throughout.
